Data as given in patent US20120157471A1, “BENZIMIDAZOLE DERIVATIVES” (PFIZER INC., priority 2009, published 2012).
pIC50: −log10 of the molar value.

How the values were obtained:
[1] = molecular target: T1, human Smo (amino acids 181-787) (Homo sapiens, UniProt Q99835); assay: Smo radioligand competition binding assay (displacement of 3H-PF-03451358 from HEK293 membranes); details: for inhibition at 0.05 µM: 0.05 μM test compound, displacement of 3H-PF-03451358, read-out: SMO % inh. @ 0.05 μM; for pIC50: radioligand competition binding
T1 construct: expressed in transfected cells; membrane preparation
T1 sequence (Q99835 181-787): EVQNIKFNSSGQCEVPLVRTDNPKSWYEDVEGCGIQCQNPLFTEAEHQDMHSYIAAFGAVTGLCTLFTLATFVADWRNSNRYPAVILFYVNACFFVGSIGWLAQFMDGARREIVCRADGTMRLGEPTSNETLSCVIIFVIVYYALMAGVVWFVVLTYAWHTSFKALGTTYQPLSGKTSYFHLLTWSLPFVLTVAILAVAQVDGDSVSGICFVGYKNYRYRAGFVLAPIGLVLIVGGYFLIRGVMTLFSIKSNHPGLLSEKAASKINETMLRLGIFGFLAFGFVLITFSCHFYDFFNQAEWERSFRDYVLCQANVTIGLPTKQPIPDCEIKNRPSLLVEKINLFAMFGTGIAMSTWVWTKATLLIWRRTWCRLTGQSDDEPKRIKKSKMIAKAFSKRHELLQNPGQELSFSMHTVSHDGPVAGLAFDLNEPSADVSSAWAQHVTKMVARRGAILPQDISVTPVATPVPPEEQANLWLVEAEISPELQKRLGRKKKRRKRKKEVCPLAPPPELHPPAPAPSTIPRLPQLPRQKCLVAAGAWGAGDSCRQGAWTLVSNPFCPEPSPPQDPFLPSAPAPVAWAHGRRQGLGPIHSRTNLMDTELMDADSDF
Outline: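 Membranes (40 μg protein/well) from HEK293 expressing murine Igk-leader-fused Smo 181-787 incubated 2 h at room temperature with 3 nM 3H-PF-03451358 in Tris pH 7.5/NaCl/MgCl2/EDTA/BSA buffer; filter-bound counts by scintillation. Nonspecific binding with 30 μM cold PF-03451358; IC50 from four-parameter fit of % inhibition.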

[2] = system: Gli-Luc/MEF cells (Smo); assay: Gli-Luc/MEF assay (Shh-stimulated luciferase reporter under the Gli response element); type: cell-based, mouse; details: Mus musculus, MEF, 48 h
Outline: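 Mouse Gli-Luc/MEF cells dosed with compound (3-fold series, […]) plus 2 μg/mL recombinant mouse Shh, then incubated 48 h at 37° C, 5% CO2. Bright-Glo luminescence read; IC50 calculated from inhibition of Shh-stimulated luciferase.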

Structure (SMILES)	inhibition at 0.05 µM [1] [%]	pIC50 [1]	pIC50 [2]
CNC(=O)N(C)C1CN(c2cc(-c3nc4ccccc4n3C)c(Cl)cn2)C1 [Example A-151, 1-{1-[5-chloro-4-(1-methyl-1H-benzimidazol-2-yl)pyridin-2-yl]azetidin-3-yl}-1,3-dimethylurea]	83	7.05	7.59
COC(=O)NC1CCN(c2cc(-c3nc4ccccc4n3C)c(Cl)cn2)C1 (centres unmarked) [Example A-152, methyl {1-[5-chloro-4-(1-methyl-1H-benzimidazol-2-yl)pyridin-2-yl]pyrrolidin-3-yl}carbamate]	87	7.16	7.68
Cn1c(-c2cc(N3CCC(NS(C)(=O)=O)C3)ncc2Cl)nc2ccccc21 (centres unmarked) [Example A-153, N-{1-[5-chloro-4-(1-methyl-1H-benzimidazol-2-yl)pyridin-2-yl]pyrrolidin-3-yl}methanesulfonamide]	93	7.64	7.82
CC(=O)N1CCCN(c2cc(-c3nc4ccccc4n3C)ccn2)CC1 [Example A-154, 2-[2-(4-acetyl-1,4-diazepan-1-yl)pyridin-4-yl]-1-methyl-1H-benzimidazole]	90	7.48	7.70
CNC(=O)N1CCCN(c2cc(-c3nc4ccccc4n3C)ccn2)CC1 [Example A-155, N-methyl-4-[4-(1-methyl-1H-benzimidazol-2-yl)pyridin-2-yl]-1,4-diazepane-1-carboxamide]	97	7.66	7.92
COC(=O)N1CCCN(c2cc(-c3nc4ccccc4n3C)ccn2)CC1 [Example A-156, methyl 4-[4-(1-methyl-1H-benzimidazol-2-yl)pyridin-2-yl]-1,4-diazepane-1-carboxylate]	95	7.64	7.96
C[C@@H]1CN(c2cc(-c3nc4ccccc4n3C)c(Cl)cn2)CCN1 [Example A-157, 2-{5-chloro-2-[(3R)-3-methylpiperazin-1-yl]pyridin-4-yl}-1-methyl-1H-benzimidazole]	95	7.46	7.62
C[C@@H]1CN(c2cc(-c3nc4ccccc4n3C)c(Cl)cn2)CCN1S(C)(=O)=O [Example A-158, 2-{5-chloro-2-[(3R)-3-methyl-4-(methylsulfonyl)piperazin-1-yl]pyridin-4-yl}-1-methyl-1H-benzimidazole]	99	8.05	8.70
CC(=O)N1CCN(c2cc(-c3nc4ccccc4n3C)c(Cl)cn2)C[C@H]1C [Example A-159, 2-{2-[(3R)-4-acetyl-3-methylpiperazin-1-yl]-5-chloropyridin-4-yl}-1-methyl-1H-benzimidazole]	100	8.00	8.40
C[C@H]1CN(c2cc(-c3nc4ccccc4n3C)c(Cl)cn2)CCN1 [Example A-160, 2-{5-chloro-2-[(3S)-3-methylpiperazin-1-yl]pyridin-4-yl}-1-methyl-1H-benzimidazole]	98	7.80	8.15
C[C@H]1CN(c2cc(-c3nc4ccccc4n3C)c(Cl)cn2)CCN1S(C)(=O)=O [Example A-161, 2-{5-chloro-2-[(3S)-3-methyl-4-(methylsulfonyl)piperazin-1-yl]pyridin-4-yl}-1-methyl-1H-benzimidazole]	98	8.05	8.52
CC(=O)N1CCN(c2cc(-c3nc4ccccc4n3C)c(Cl)cn2)C[C@@H]1C [Example A-162, 2-{2-[(3S)-4-acetyl-3-methylpiperazin-1-yl]-5-chloropyridin-4-yl}-1-methyl-1H-benzimidazole]	91	8.15	8.30
CN(CCCO)c1cc(-c2nc3ccccc3n2C)c(Cl)cn1 [Example A-163, 3-{[5-chloro-4-(1-methyl-1H-benzimidazol-2-yl)pyridin-2-yl](methyl)amino}propan-1-ol]	98	7.77	7.85
CN(CCO)c1cc(-c2nc3ccccc3n2C)c(Cl)cn1 [Example A-164, 2-{[5-chloro-4-(1-methyl-1H-benzimidazol-2-yl)pyridin-2-yl](methyl)amino}ethanol]	97	7.82	7.85
Cn1c(-c2cc(NCCS(N)(=O)=O)ncc2Cl)nc2ccccc21 [Example A-165, 2-{[5-chloro-4-(1-methyl-1H-benzimidazol-2-yl)pyridin-2-yl]amino}ethanesulfonamide]	62	6.43	6.55
C[C@@H]1CN(S(C)(=O)=O)CCN1c1cc(-c2nc3ccccc3n2C)c(Cl)cn1 [Example A-166, 2-{5-chloro-2-[(2R)-2-methyl-4-(methylsulfonyl)piperazin-1-yl]pyridin-4-yl}-1-methyl-1H-benzimidazole]	102		8.40
CC(=O)N1CCN(c2cc(-c3nc4ccccc4n3C)c(Cl)cn2)[C@H](C)C1 [Example A-168, 2-{2-[(2R)-4-acetyl-2-methylpiperazin-1-yl]-5-chloropyridin-4-yl}-1-methyl-1H-benzimidazole]	97	8.10	8.15
Cn1c(-c2cc(N3CCC(O)CC3)ncc2Cl)nc2cccnc21 [Example A-169, 1-[5-chloro-4-(3-methyl-3H-imidazo[4,5-b]pyridin-2-yl)pyridin-2-yl]piperidin-4-ol]	76	6.66	6.86
Cn1c(-c2cc(N3CCN(C=O)CC3)ncc2Cl)nc2cccnc21 [Example A-170, 4-[5-chloro-4-(3-methyl-3H-imidazo[4,5-b]pyridin-2-yl)pyridin-2-yl]piperazine-1-carbaldehyde]	81	6.85	6.93
CC1C(=O)NCCN1c1cc(-c2nc3ccccc3n2C)c(Cl)cn1 (centres unmarked) [Example A-171, 4-[5-chloro-4-(1-methyl-1H-benzimidazol-2-yl)pyridin-2-yl]-3-methylpiperazin-2-one]	97	7.51	7.55
Cn1c(-c2cc(NCCO)ncc2Cl)nc2ccccc21 [Example A-172, 2-{[5-chloro-4-(1-methyl-1H-benzimidazol-2-yl)pyridin-2-yl]amino}ethanol]	80	6.97	7.28
Cn1c(-c2cc(N3CCc4[nH]ncc4C3)ncc2Cl)nc2ccccc21 [Example A-173, 5-[5-chloro-4-(1-methyl-1H-benzimidazol-2-yl)pyridin-2-yl]-4,5,6,7-tetrahydro-1H-pyrazolo[4,3-c]pyridine]	83	6.97	7.62
Cn1c(-c2cc(N3CCNC(=O)C3)ncc2Cl)nc2ccccc21 [Example A-174, 4-[5-chloro-4-(1-methyl-1H-benzimidazol-2-yl)pyridin-2-yl]piperazin-2-one]	86	7.41	7.41
Cn1c(-c2cc(N3C[C@H]4CC[C@@H](C3)N4S(C)(=O)=O)ncc2Cl)nc2ccccc21 [Example A-175, 2-{5-chloro-2-[(1R,5S)-8-(methylsulfonyl)-3,8-diazabicyclo[3.2.1]oct-3-yl]pyridin-4-yl}-1-methyl-1H-benzimidazole]	97	7.77	8.05
CNC(=O)NC1CCN(c2cc(-c3nc4ccccc4n3C)c(Cl)cn2)C1 (centres unmarked) [Example A-176, 1-{1-[5-chloro-4-(1-methyl-1H-benzimidazol-2-yl)pyridin-2-yl]pyrrolidin-3-yl}-3-methylurea]	82	7.08	7.66
CC(=O)N(C)C1CN(c2cc(-c3nc4ccccc4n3C)c(Cl)cn2)C1 [Example A-177, N-{1-[5-chloro-4-(1-methyl-1H-benzimidazol-2-yl)pyridin-2-yl]azetidin-3-yl}-N-methylacetamide]	73	6.76	7.42
COC(=O)N(C)C1CCN(c2cc(-c3nc4ccccc4n3C)c(Cl)cn2)C1 (centres unmarked) [Example A-178, methyl {1-[5-chloro-4-(1-methyl-1H-benzimidazol-2-yl)pyridin-2-yl]pyrrolidin-3-yl}methylcarbamate]	92	7.37	7.77
CNC(=O)N(C)C1CCN(c2cc(-c3nc4ccccc4n3C)c(Cl)cn2)CC1 [Example A-179, 1-{1-[5-chloro-4-(1-methyl-1H-benzimidazol-2-yl)pyridin-2-yl]piperidin-4-yl}-1,3-dimethylurea]	97	8.00	8.15
CNC(=O)NC1CN(c2cc(-c3nc4ccccc4n3C)c(Cl)cn2)C1 [Example A-180, 1-{1-[5-chloro-4-(1-methyl-1H-benzimidazol-2-yl)pyridin-2-yl]azetidin-3-yl}-3-methylurea]	89	7.22	7.37
CN(C1CCN(c2cc(-c3nc4ccccc4n3C)c(Cl)cn2)C1)S(C)(=O)=O (centres unmarked) [Example A-181, N-{1-[5-chloro-4-(1-methyl-1H-benzimidazol-2-yl)pyridin-2-yl]pyrrolidin-3-yl}-N-methylmethanesulfonamide]	98	7.96	8.05
